Results on five compounds are retold here after patent US7935674B2, “Indole derivatives” (Mitsubishi Tanabe Pharma Corporation, priority 2005, dated 2011).

One data set deals with T1, human SGLT2 (Homo sapiens, UniProt P31639).
T1 construct: expressed in transfected cells; host or cells: CHOK1 (Chinese hamster ovary) cells, kept under Geneticin selection
T1 sequence (P31639 1-672): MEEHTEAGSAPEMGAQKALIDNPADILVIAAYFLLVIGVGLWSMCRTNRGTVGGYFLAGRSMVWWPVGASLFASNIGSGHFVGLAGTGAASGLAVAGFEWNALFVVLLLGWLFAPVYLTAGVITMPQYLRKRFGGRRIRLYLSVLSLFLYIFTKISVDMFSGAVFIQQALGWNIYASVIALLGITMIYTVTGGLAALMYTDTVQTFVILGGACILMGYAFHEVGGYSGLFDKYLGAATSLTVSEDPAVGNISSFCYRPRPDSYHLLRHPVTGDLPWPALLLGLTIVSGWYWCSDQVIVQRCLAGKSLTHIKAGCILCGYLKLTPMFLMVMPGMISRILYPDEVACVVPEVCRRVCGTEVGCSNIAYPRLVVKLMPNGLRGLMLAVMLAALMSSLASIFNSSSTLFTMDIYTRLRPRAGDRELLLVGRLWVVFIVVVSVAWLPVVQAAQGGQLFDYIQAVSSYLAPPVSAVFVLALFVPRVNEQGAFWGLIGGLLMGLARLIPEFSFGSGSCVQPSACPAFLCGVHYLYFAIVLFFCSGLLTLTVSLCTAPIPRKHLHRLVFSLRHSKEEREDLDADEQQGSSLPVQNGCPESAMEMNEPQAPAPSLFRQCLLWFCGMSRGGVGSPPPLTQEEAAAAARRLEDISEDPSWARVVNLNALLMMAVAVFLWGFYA
The experiment in a line: Assay for SGLT2 inhibition (14C-AMG uptake in CHOK1 cells expressing human SGLT2). It counts as cell-based. The settings on record: CHOK1 cells expressing human SGLT2; 14C-AMG uptake, 0.5 mM, 2 hours at 37° C.; read-out: IC50. The procedure:
1. Assay for SGLT2 Inhibition
Compounds described in the above examples were used for the SGLT2 inhibition assay.
CHOK1 cells expressing human SGLT2 were seeded in 24-well plates at a density of 400,000 cells/well in F-12 nutrient mixture (Ham's F-12) containing 10% fetal bovine serum, 400 μg/ml Geneticin, 50 units/ml sodium penicillin G (Gibco-BRL) and 50 μg/ml streptomycin sulfate. After 2 days of culture at 37° C. in a humidified atmosphere containing 5% CO2, cells were washed once with the assay buffer (137 mM NaCl, 5 mM KCl, 1 mM CaCl2, 1 mM MgCl2, 50 mM Hepes, and 20 mM Tris, pH 7.4) and incubated with 250 μl of the buffer containing test compounds for 10 min at 37° C. Test compounds were dissolved in DMSO. The final concentration of DMSO was 0.5%. The transport reaction was initiated by addition of 50 μl [^14C]-methyl-α-D-glucopyranoside (^14C-AMG) solution (final concentration, 0.5 mM). After incubation for 2 hours at 37° C., the uptake was stopped by aspiration of the incubation mixture, the cells were washed three times with ice-cold PBS. Then, cells were solubilized with 0.3 N NaOH and aliquots were taken for determination of radioactivity by a liquid scintillation counter. Nonspecific AMG uptake was defined as that which occurred in the presence of 100 μM of phlorizin, a specific inhibitor of sodium-dependent glucose cotransporter. Specific uptake was normalized for the protein concentrations measured by the method of Bradford. The 50% inhibitory concentration (IC50) values were calculated from dose-response curves by least square method.

The subject of another data set is Sprague-Dawley (SD) rats. Description: Urinary glucose excretion test in rats. The class given is in vivo, rat. The settings on record: male SD rats; 30 mg/kg by oral gavage; urine collected for 24 hours; daily amount of glucose excreted in urine per individual. The procedure: 2. Urinary Glucose Excretion Test in Rats Test Compounds:
Compounds described in the above examples were used for the Urinary glucose excretion test in rats.
6-week-old male Sprague-Dawley (SD) rats were housed in individual metabolic cages with free access to food and water from 2 days prior to the experiment. On the morning of the experiment, rats were administered vehicle (0.2% carboxymethyl cellulose solution containing 0.2% Tween80) or test compounds (30 mg/kg) by oral gavage at a volume of 10 ml/kg. Then, urine of the rat was collected for 24 hours, and the urine volume was measured. Subsequently, the glucose concentration in urine was quantified using the enzymatic assay kit and the daily amount of glucose excreted in urine per individual was calculated.

Broadly, the IC50 is the concentration needed to halve the response being measured. One may read the melting point as the temperature of the solid-liquid transition. The compound `Cc1cccc2c1c(Cc1ccc(-c3ccccn3)s1)cn2[C@@H]1O[C@H](CO)[C@@H](O)[C@H](O)[C@H]1O` [Example 52, 4-Methyl-3-(5-(2-pyridyl)thiophen-2-yl-methyl)-1-(β-D-gluco-pyranosyl)indole] had a melting point of 195 to 200 °C. Also, the IC50 on human SGLT2 stood at 2.8 nM.

As to `OC[C@H]1O[C@@H](n2cc(Cc3ccc(I)cc3)c3c(Br)cccc32)[C@H](O)[C@@H](O)[C@@H]1O` [Example 42, 4-Bromo-3-(4-iodophenylmethyl)-1-(β-D-glucopyranosyl)indole], at human SGLT2, the IC50 is 6.1 nM. In addition, the Urinary glucose result in the data set on Sprague-Dawley (SD) rats was “A (A≧2400 mg)”.

Turning to `OC[C@H]1O[C@@H](n2cc(Cc3ccc(Cl)cc3)c3c(Cl)cccc32)[C@H](O)[C@@H](O)[C@@H]1O` [Example 6, 4-Chloro-3-(4-chlorophenylmethyl)-1-(β-D-glucopyranosyl)-indole], at human SGLT2, the IC50 stood at 9.8 nM. For the same compound, the Urinary glucose entry in the data set with Sprague-Dawley (SD) rats is reported as “A (A≧2400 mg)”.

In the case of `CCc1ccc(Cc2cn([C@@H]3O[C@H](CO)[C@@H](O)[C@H](O)[C@H]3O)c3cccc(F)c23)s1` [Example 18, 3-(5-Ethylthiophen-2-yl-methyl)-4-fluoro-1-(β-D-gluco-pyranosyl)indole], the IC50 at human SGLT2 amounted to 4.1 nM. In addition, the Urinary glucose entry in the data set with Sprague-Dawley (SD) rats is reported as “B (2400 mg>B≧2000 mg)”.

Regarding `OC[C@H]1O[C@@H](n2cc(Cc3ccc4occc4c3)c3c(Cl)cccc32)[C@H](O)[C@@H](O)[C@@H]1O` [Example 15, 3-(Benzo[b]furan-5-yl-methyl)-4-chloro-1-(β-D-glucopyranosyl)indole], the IC50 on human SGLT2 is 3.3 nM. In the data set on Sprague-Dawley (SD) rats, the Urinary glucose result is recorded as “A (A≧2400 mg)”.
